{"source": "patent US11766430B2", "about": "“Methods of using a phenoxypropylamine compound to treat pain” (Minerva Neurosciences, Inc., priority 2018, dated 2023)", "key": {"[1]": {"system": "chemotherapy-induced peripheral neuropathic pain in rats", "experiment": "Paclitaxel-induced peripheral neuropathic pain, paw withdrawal threshold with von Frey filaments, single administration (Example 5)", "type": "in vivo, Male Sprague Dawley rats", "settings": "for Paw withdrawal threshold (PWT) compared to vehicle (in words): Day 14; for Paw withdrawal threshold (PWT), Day 14 Avg., Mean: i.p., 2 hours prior to test, Count 12", "experimental": "Assessment of neuropathic pain using von Frey filaments was performed. Rats were administered paclitaxel (2 mg/kg) on four alternate days (days 1, 3, 5 and 7). Baseline and post treatment paw withdrawal thresholds (PWT) were evaluated using von Frey filaments (Semmes-Weinstein filaments, Stoelting, Wood Dale, Ill., USA) of varying stiffness (0.4, 0.7, 1.2, 2.0, 3.6, 5.5, 8.5, 10, 15, 26 g). Animals were placed on a perforated metallic platform and allowed to acclimate to their surroundings for a minimum of 15 minutes before each test session. Each filament was presented perpendicular to the plantar surface with sufficient force to cause slight buckling against the paw, and then held until a positive response is noted (paw sharply withdrawn). As described by Chaplan, S. R. et al. “Qualitative Assessment of Tactile Allodynia in the Rat Paw” Journal of Neuroscience Methods, 53 (1994), 55-63 (“Chaplan”), once the threshold was crossed, the 2 responses straddling the threshold are retrospectively designated as the first 2 responses. Four additional responses were measured to stimuli varied sequentially up or down based on the animal's response. The 6 responses in the immediate vicinity of the threshold were used to calculate the 50% g threshold: 50% g threshold=(10^[Xf+k*d])/10000\nXf is the final filament used (in log units). The parameter k is from the Appendix 1 in Chaplan and was determined by the pattern of the von Frey responses (e.g. OXOXOX where ‘O’ indicates no response and ‘X’ denotes a withdrawal). The parameter d is the difference between stimuli which Chaplan used a constant d=0.224. To accommodate for the use of the 10 g and 26 g filaments, the exact difference between stimuli were used.\nMale Sprague Dawley rats (from Envigo, Ind., USA) were used in the study. Animals were received at approximately 250 g and housed 3 per cage upon arrival. All rats were examined, handled, and weighed prior to initiation of the study to assure adequate health and suitability. During the course of the study, 12 h/12 h light/dark cycles was maintained. The room temperature was be maintained between 20 and 23° C. with a relative humidity maintained around 50%. Chow and water was provided ad libitum for the duration of the study. All testing was performed during the animal's light cycle phase. Every effort was made to minimize suffering of animals. Rats with baseline PWT less than 12 g were not included in the study. Rats were balanced by body weight and by their pre-paclitaxel PWT values. ANOVA found no significant differences between the treatment groups.\nPaclitaxel was purchased from Biolyse Pharma (Ontario, Canada) and was injected i.p. (2 mg/kg) on four alternate days (day 1, 3, 5 and 7) for a total of 4 injections at a dose volume of 1 mL/kg.\nRats were subsequently balanced and assigned to treatment groups based on post-paclitaxel PWT values. On test day, PWT was assessed two hours post vehicle or MIN-117 injections and one hour after gabapentin administration.\nGabapentin was purchased from Toronto Research Chemicals and was dissolved in saline and administered orally 60 minutes prior to test at a dose volume of 1 mL/kg. MIN-117 (1, 3 and 10 mg/kg), formulated in 0.5% (w/v) hydroxypropylmethylcellulose (HPMC, Sigma-Aldrich), was administered i.p. at a dose volume of 1 mL/kg. MIN-117 was administered 2 hours prior to test."}, "[2]": {"experiment": "Body weight, reversal study (Example 6)", "type": "in vivo, Male Sprague Dawley rats", "settings": "1, 3 and 10 mg/kg i.p. once daily for 2 weeks; repeated measures ANOVA", "experimental": "Body weight (BW) was measured daily during treatment and twice a week after cessation of dosing.\nData was analyzed by analysis of variance (ANOVA) followed by post-hoc comparisons where appropriate. An effect will be considered significant if p<0.05. Data was represented as the mean and standard error to the mean (s.e.m). Statistical outliers that fell above or below 2 standard deviations of the mean were identified but not removed from the final analysis."}}, "note": "Entries after “also recorded” stand apart in the source; their conditions may differ."}
{"smiles": "Cc1nnc(-c2cc3c(OC[C@@H](O)CN4CCC(c5ccc(Cl)c(Cl)c5)CC4)cccc3o2)o1.Cl", "note": "[MIN-117, (2S)-1-(4-(3,4-dichlorophenyl)piperidin-1-yl)-3-((2-(5-methyl-1,3,4-oxadiazol-2-yl)benzofuran-4-yl)oxy)propan-2-ol hydrochloride]", "values": [{"measurement": "Paw withdrawal threshold (PWT) compared to vehicle (in words)", "setting": "[1]; 1 mg/kg i.p. 2 hours prior to test", "value": "did not show a significant increase in PWT"}, {"measurement": "Paw withdrawal threshold (PWT) compared to vehicle (in words)", "setting": "[1]; 3 mg/kg i.p. 2 hours prior to test, hydrochloride, 3 mg/kg", "value": "significant increase in PWT; also recorded: significantly reduced neuropathic pain"}, {"measurement": "Paw withdrawal threshold (PWT) compared to vehicle (in words)", "setting": "[1]; 10 mg/kg i.p. 2 hours prior to test, hydrochloride, 10 mg/kg", "value": "significant increase in PWT; also recorded: significantly reduced neuropathic pain"}, {"measurement": "Mean Diff. of Day 14 Avg. PWT, Fisher's PLSD", "setting": "[1]; Paclitaxel + Gabapentin (100 mg/kg), Paclitaxel + MIN-117 (1 mg/kg)", "value": 14.200}, {"measurement": "Mean Diff. of Day 14 Avg. PWT, Fisher's PLSD", "setting": "[1]; Paclitaxel + Gabapentin (100 mg/kg), Paclitaxel + MIN-117 (3 mg/kg)", "value": 12.775}, {"measurement": "Mean Diff. of Day 14 Avg. PWT, Fisher's PLSD", "setting": "[1]; Paclitaxel + Gabapentin (100 mg/kg), Paclitaxel + MIN-117 (10 mg/kg)", "value": 11.802}, {"measurement": "Mean Diff. of Day 14 Avg. PWT, Fisher's PLSD", "setting": "[1]; Paclitaxel + MIN-117 (1 mg/kg), Paclitaxel + MIN-117 (3 mg/kg)", "value": "−1.425"}, {"measurement": "Mean Diff. of Day 14 Avg. PWT, Fisher's PLSD", "setting": "[1]; Paclitaxel + MIN-117 (1 mg/kg), Paclitaxel + MIN-117 (10 mg/kg)", "value": "−2.399"}, {"measurement": "Paw withdrawal threshold (PWT), Day 14 Avg., Mean", "setting": "[1]; Paclitaxel + MIN-117 (1 mg/kg)", "value": 5.433, "unit": "g"}, {"measurement": "Paw withdrawal threshold (PWT), Day 14 Avg., Mean", "setting": "[1]; Paclitaxel + MIN-117 (3 mg/kg)", "value": 6.858, "unit": "g"}, {"measurement": "Paw withdrawal threshold (PWT), Day 14 Avg., Mean", "setting": "[1]; Paclitaxel + MIN-117 (10 mg/kg)", "value": 7.832, "unit": "g"}, {"measurement": "Mean Diff. of Day 14 Avg. PWT, Fisher's PLSD", "setting": "[1]; Paclitaxel + Vehicle, Paclitaxel + MIN-117 (1 mg/kg)", "value": "−1.558"}, {"measurement": "Mean Diff. of Day 14 Avg. PWT, Fisher's PLSD", "setting": "[1]; Paclitaxel + Vehicle, Paclitaxel + MIN-117 (3 mg/kg)", "value": "−2.984"}, {"measurement": "Mean Diff. of Day 14 Avg. PWT, Fisher's PLSD", "setting": "[1]; Paclitaxel + Vehicle, Paclitaxel + MIN-117 (10 mg/kg)", "value": "−3.957"}, {"measurement": "Body weight during treatment compared to vehicle (in words)", "setting": "[2]", "value": "no significant treatment effect"}]}
